Values after ≈ are worked out from the molar mass of the structure shown.
Key:
Experiment in all cases: In vitro antibacterial evaluation: minimum inhibitory concentration (MIC), broth dilution method
Format in all cases: cell-based
[1] = test system: Escherichia coli; conditions: 18 hours at 35° C.
How it was run: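 Following NCCLS approved standard M7-A2, compounds are serially diluted from 64 to 0.06 μg/mL in Muller-Hinton II […] and inoculated at 5×10^5 CFU/mL; the MIC is the minimum concentration at which growth is inhibited.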

[2] = test system: Streptococcus sp.; conditions: 18 hours at 35° C.
How it was run: (§1)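 Broth dilution per NCCLS M7-A2 in Muller-Hinton II […], inoculum 5×10^5 CFU/mL, antibiotic tested over 64-0.06 μg/mL. MIC is taken as the lowest concentration that inhibits growth. Panel includes recent clinical isolates resistant to methicillin, penicillin and/or vancomycin.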

[3] = test system: Staphylococcus sp.; conditions: for MIC Staphylococcus haemolyticus (GC 4546): strain GC 4546; for MIC Coagulase Negative Staphylococcus (GC 4547): strain GC 4547; for MIC Coagulase Negative Staphylococcus (GC 4548): strain GC 4548; for MIC Coagulase Negative Staphylococcus (GC 4549): strain GC 4549; for MIC Coagulase Negative Staphylococcus (GC 4551): strain GC 4551
How it was run: as §1

[4] = test system: Enterococcus sp.; conditions: 18 hours at 35° C.
How it was run: as §1

[5] = Streptococcus agalactiae (GC 4564)
[6] = Streptococcus pneumoniae (ATCC 6301)
[7] = Streptococcus pneumoniae (GC 1894)
[8] = Streptococcus pneumoniae (GC 4565)
[9] = Streptococcus pyogenes (GC 4563)
[10] = broth dilution, inoculum 5×10^5 CFU/mL
[11] = Enterococcus faecalis (ATCC 29212)
[12] = Enterococcus faecalis (GC 2242)
[13] = Enterococcus faecalis (GC 2691)
[14] = Enterococcus faecalis (GC 4552)
[15] = Enterococcus faecalis (GC 4553)
[16] = Enterococcus faecalis (GC 6189)

CC(c1ccccc1)C1NC(=O)CNC(=O)C(CO)NC(=O)C(C(O)C2CN(c3nc4ccccc4o3)C(=N)N2C2OC(CO)C(O)C(O)C2O)NC(=O)C(C(O)C2CNC(=Nc3nc4ccccc4o3)N2)NC(=O)C(Cc2ccc(OC3OC(CO)C(OC4OC5COC6(OC5C(O)C4O)C4CC5CC(C4)CC6C5)C(O)C3O)cc2)NC1=O (stereo not drawn) [Example 227, Di-N-(2-(1,3-benzoxazolyl)-cyclo[glycyl-β-methylphenylalanyl-O-[4-O-[4,6-O-(2-adamantylidene)hexopyranosyl]hexopyranosyl]tyrosyl-3-[2-iminoimidazolidin-4-yl]seryl-3-β-hexopyranosyl-2-iminoimidazolidin-4-yl]serylseryl]]
MIC Escherichia coli (GC 4560) [1]: 8 µg/mL (≈ 4.81 µM)
MIC Streptococcus agalactiae (GC 4564) [2, 5]: 64 µg/mL (≈ 38.5 µM)
MIC Streptococcus pneumoniae (ATCC 6301) [2, 6]: 32 µg/mL (≈ 19.3 µM)
MIC Streptococcus pneumoniae (GC 1894) [2, 7]: 32 µg/mL (≈ 19.3 µM)
MIC Streptococcus pneumoniae (GC 4565) [2, 8]: 64 µg/mL (≈ 38.5 µM)
MIC Streptococcus pyogenes (GC 4563) [2, 9]: 32 µg/mL (≈ 19.3 µM)
MIC Streptococcus agalactiae (GC 4564) [2, 10]: 64 µg/mL (≈ 38.5 µM)
MIC Streptococcus pneumoniae (ATCC 6301) [2, 10]: 32 µg/mL (≈ 19.3 µM)
MIC Streptococcus pneumoniae (GC 1894) [2, 10]: 32 µg/mL (≈ 19.3 µM)
MIC Streptococcus pneumoniae (GC 4565) [2, 10]: 64 µg/mL (≈ 38.5 µM)
MIC Streptococcus pyogenes (GC 4563) [2, 10]: 32 µg/mL (≈ 19.3 µM)
MIC Staphylococcus haemolyticus (GC 4546) [3]: 64 µg/mL (≈ 38.5 µM)
MIC Coagulase Negative Staphylococcus (GC 4547) [3]: 32 µg/mL (≈ 19.3 µM)
MIC Coagulase Negative Staphylococcus (GC 4548) [3]: 4 µg/mL (≈ 2.41 µM)
MIC Coagulase Negative Staphylococcus (GC 4549) [3]: 32 µg/mL (≈ 19.3 µM)
MIC Coagulase Negative Staphylococcus (GC 4551) [3]: 8 µg/mL (≈ 4.81 µM)
MIC Enterococcus avium (GC 4558) ([4]; Enterococcus avium (GC 4558)): 8 µg/mL (≈ 4.81 µM)
MIC Enterococcus faecalis (ATCC 29212) [4, 11]: 64 µg/mL (≈ 38.5 µM)
MIC Enterococcus faecalis (GC 2242) [4, 12]: 64 µg/mL (≈ 38.5 µM)
MIC Enterococcus faecalis (GC 2691) [4, 13]: 64 µg/mL (≈ 38.5 µM)
MIC Enterococcus faecalis (GC 4552) [4, 14]: 64 µg/mL (≈ 38.5 µM)
MIC Enterococcus faecalis (GC 4553) [4, 15]: 8 µg/mL (≈ 4.81 µM)
MIC Enterococcus faecalis (GC 6189) [4, 16]: 64 µg/mL (≈ 38.5 µM)
MIC Enterococcus faecium (GC 2243) ([4]; Enterococcus faecium (GC 2243)): 32 µg/mL (≈ 19.3 µM)
MIC Enterococcus faecium (GC 4556) ([4]; Enterococcus faecium (GC 4556)): 64 µg/mL (≈ 38.5 µM)
MIC Enterococcus faecium (GC 4557) ([4]; Enterococcus faecium (GC 4557)): 8 µg/mL (≈ 4.81 µM)
MIC Enterococcus avium (GC 4558) [4, 10]: 8 µg/mL (≈ 4.81 µM)
MIC Enterococcus faecalis (ATCC 29212) [4, 10]: 64 µg/mL (≈ 38.5 µM)
MIC Enterococcus faecalis (GC 2242) [4, 10]: 64 µg/mL (≈ 38.5 µM)
MIC Enterococcus faecalis (GC 2691) [4, 10]: 64 µg/mL (≈ 38.5 µM)
MIC Enterococcus faecalis (GC 4552) [4, 10]: 64 µg/mL (≈ 38.5 µM)
MIC Enterococcus faecalis (GC 4553) [4, 10]: 8 µg/mL (≈ 4.81 µM)
MIC Enterococcus faecalis (GC 6189) [4, 10]: 64 µg/mL (≈ 38.5 µM)
MIC Enterococcus faecium (GC 2243) [4, 10]: 32 µg/mL (≈ 19.3 µM)
MIC Enterococcus faecium (GC 4556) [4, 10]: 64 µg/mL (≈ 38.5 µM)
MIC Enterococcus faecium (GC 4557) [4, 10]: 8 µg/mL (≈ 4.81 µM)

CC(C)CC(=O)OC1C(O)C(OC2C(CO)OC(Oc3ccc(CC4NC(=O)C(C(C)c5ccccc5)NC(=O)CNC(=O)C(CO)NC(=O)C(C(O)C5CNC(=N)N5C5OC(CO)C(O)C(O)C5O)NC(=O)C(C(O)C5CNC(=N)N5)NC4=O)cc3)C(O)C2O)OC2COC3(OC21)C1CC2CC(C1)CC3C2 (stereo not drawn) [Example 218, Cyclo[glycyl-β-methylphenylalanyl-O-[4-O-[4,6-O-(2-adamantylidene)-3-O-(3-methyl-butanoyl)-hexopyranosyl]hexopyranosyl]tyrosyl-3-(2-iminoimidazolidin-4-yl)-seryl-3-(3-hexopyranosyl-2-iminoimidazolidin-4-yl)serylseryl]]
MIC Escherichia coli (ATCC 25922) ([1]; Escherichia coli (ATCC 25922)): 64 µg/mL (≈ 42.3 µM)
MIC Escherichia coli (GC 4559) ([1]; Escherichia coli (GC 4559)): >64 µg/mL
MIC Escherichia coli (GC 4560) [1]: 8 µg/mL (≈ 5.29 µM)
MIC Streptococcus agalactiae (GC 4564) [2, 5]: 0.25 µg/mL (≈ 0.165 µM)
MIC Streptococcus pneumoniae (ATCC 6301) [2, 6]: 0.12 µg/mL (≈ 0.0794 µM)
MIC Streptococcus pneumoniae (GC 1894) [2, 7]: <0.06 µg/mL
MIC Streptococcus pneumoniae (GC 4565) [2, 8]: 0.12 µg/mL (≈ 0.0794 µM)
MIC Streptococcus pyogenes (GC 4563) [2, 9]: 0.5 µg/mL (≈ 0.331 µM)
MIC Streptococcus agalactiae (GC 4564) [2, 10]: 0.25 µg/mL (≈ 0.165 µM)
MIC Streptococcus pneumoniae (ATCC 6301) [2, 10]: 0.12 µg/mL (≈ 0.0794 µM)
MIC Streptococcus pneumoniae (GC 1894) [2, 10]: <0.06 µg/mL
MIC Streptococcus pneumoniae (GC 4565) [2, 10]: 0.12 µg/mL (≈ 0.0794 µM)
MIC Streptococcus pyogenes (GC 4563) [2, 10]: 0.5 µg/mL (≈ 0.331 µM)
MIC Staphylococcus aureus (ATCC 29213) ([3]; strain ATCC 29213): 4 µg/mL (≈ 2.65 µM)
MIC Staphylococcus aureus (GC 1131) ([3]; strain GC 1131): 4 µg/mL (≈ 2.65 µM)
MIC Staphylococcus aureus (GC 3051) ([3]; strain GC 3051): 4 µg/mL (≈ 2.65 µM)
MIC Staphylococcus aureus (GC 3053) ([3]; strain GC 3053): 4 µg/mL (≈ 2.65 µM)
MIC Staphylococcus aureus (GC 4541) ([3]; strain GC 4541): 4 µg/mL (≈ 2.65 µM)
MIC Staphylococcus aureus (GC 4542) ([3]; strain GC 4542): 4 µg/mL (≈ 2.65 µM)
MIC Staphylococcus aureus-SMITH (GC 4543) ([3]; strain GC 4543): 4 µg/mL (≈ 2.65 µM)
MIC Staphylococcus aureus (GC 4544) ([3]; strain GC 4544): 4 µg/mL (≈ 2.65 µM)
MIC Staphylococcus aureus (GC 4545) ([3]; strain GC 4545): 4 µg/mL (≈ 2.65 µM)
MIC Staphylococcus haemolyticus (GC 4546) [3]: 4 µg/mL (≈ 2.65 µM)
MIC Coagulase Negative Staphylococcus (GC 4547) [3]: 4 µg/mL (≈ 2.65 µM)
MIC Coagulase Negative Staphylococcus (GC 4548) [3]: 4 µg/mL (≈ 2.65 µM)
MIC Coagulase Negative Staphylococcus (GC 4549) [3]: 4 µg/mL (≈ 2.65 µM)
MIC Coagulase Negative Staphylococcus (GC 4551) [3]: 8 µg/mL (≈ 5.29 µM)
MIC Coagulase Negative Staphylococcus (GC 6257) ([3]; strain GC 6257): 4 µg/mL (≈ 2.65 µM)
MIC Enterococcus avium (GC 4558) ([4]; Enterococcus avium (GC 4558)): 4 µg/mL (≈ 2.65 µM)
MIC Enterococcus faecalis (ATCC 29212) [4, 11]: 4 µg/mL (≈ 2.65 µM)
MIC Enterococcus faecalis (GC 2242) [4, 12]: 4 µg/mL (≈ 2.65 µM)
MIC Enterococcus faecalis (GC 2691) [4, 13]: 4 µg/mL (≈ 2.65 µM)
MIC Enterococcus faecalis (GC 3059) ([4]; Enterococcus faecalis (GC 3059)): 4 µg/mL (≈ 2.65 µM)
MIC Enterococcus faecalis (GC 4552) [4, 14]: 4 µg/mL (≈ 2.65 µM)
MIC Enterococcus faecalis (GC 4553) [4, 15]: 4 µg/mL (≈ 2.65 µM)
MIC Enterococcus faecalis (GC 4554) ([4]; Enterococcus faecalis (GC 4554)): 4 µg/mL (≈ 2.65 µM)
MIC Enterococcus faecalis (GC 6189) [4, 16]: 4 µg/mL (≈ 2.65 µM)
MIC Enterococcus faecium (GC 2243) ([4]; Enterococcus faecium (GC 2243)): 4 µg/mL (≈ 2.65 µM)
MIC Enterococcus faecium (GC 4556) ([4]; Enterococcus faecium (GC 4556)): 4 µg/mL (≈ 2.65 µM)
MIC Enterococcus faecium (GC 4557) ([4]; Enterococcus faecium (GC 4557)): 4 µg/mL (≈ 2.65 µM)
MIC Enterococcus avium (GC 4558) [4, 10]: 4 µg/mL (≈ 2.65 µM)
MIC Enterococcus faecalis (ATCC 29212) [4, 10]: 4 µg/mL (≈ 2.65 µM)
MIC Enterococcus faecalis (GC 2242) [4, 10]: 4 µg/mL (≈ 2.65 µM)
MIC Enterococcus faecalis (GC 2691) [4, 10]: 4 µg/mL (≈ 2.65 µM)
MIC Enterococcus faecalis (GC 3059) [4, 10]: 4 µg/mL (≈ 2.65 µM)
MIC Enterococcus faecalis (GC 4552) [4, 10]: 4 µg/mL (≈ 2.65 µM)
MIC Enterococcus faecalis (GC 4553) [4, 10]: 4 µg/mL (≈ 2.65 µM)
MIC Enterococcus faecalis (GC 4554) [4, 10]: 4 µg/mL (≈ 2.65 µM)
MIC Enterococcus faecalis (GC 6189) [4, 10]: 4 µg/mL (≈ 2.65 µM)
MIC Enterococcus faecium (GC 2243) [4, 10]: 4 µg/mL (≈ 2.65 µM)
MIC Enterococcus faecium (GC 4556) [4, 10]: 4 µg/mL (≈ 2.65 µM)
MIC Enterococcus faecium (GC 4557) [4, 10]: 4 µg/mL (≈ 2.65 µM)

From patent publication US8247211B2, “Glycopeptide antibiotics” (American Cyanamid Company, priority 2001, dated 2012)
